{"source": "patent US20080267909A1", "about": "“PHAGOCYTE ENHANCEMENT THERAPY FOR ATHEROSCLEROSIS” (THE TRUSTEES OF COLUMBIA UNIVERSITY IN THE CITY OF NEW YORK, priority 2005, published 2008)", "molecules": {"B1": {"name": "interleukin-4: cytokine that promotes alternative activation of macrophages (protein, UniProt P05112 25-153, looked up)", "Interleukin-4": "HKCDITLQEIIKTLNSLTEQKTLCTELTVTDIFAASKNTTEKETFCRAATVLRQFYSHHEKDTRCLGATAQQFHRHKQLIRFLKRLDRNLWGLAGLNSCPVKEANQSTLENFLERLKTIMREKYSKCSS"}}, "key": {"[1]": {"tested_on": "FC-induced apoptotic macrophages", "settings": "phagocytes pre-treated with 100 μM for 15 minutes; compared to untreated phagocytes; FIG. 2", "protocol": "Briefly, mouse peritoneal macrophages were labeled with the fluorophore calcein-AM (green) and then FC-loaded to induced apoptosis. Some of the macrophages were not FC-loaded, thus serving as a non-apoptotic control. The macrophages were added to a monolayer of octadecylrhodamine-labeled (red) macrophage phagocytes for 30 minutes at 37° C. The monolayers were then thoroughly rinsed with phosphate buffered saline (PBS). […] The percentage of rhodamine-labeled phagocytes with green inclusion was determined and quantified. Inclusion of green indicated the uptake of apoptotic cells into the phagocytes."}, "[2]": {"tested_on": "ingesting phagocytes (IPs) and non-IPs", "assay": "FC-induced apoptosis (annexin V) in IPs and non-IPs during 20 hour post-ingestion FC-loading", "assay_type": "cell-based, mouse", "settings": "10 μM inhibitor; for apoptosis in IPs: 20 hours in FC-loading medium, FIG. 10A", "method": "FIG. 10A is a bar graph depicting the results of experiments in which the protocol described in FIG. 9C was used and the percent apoptosis was determined in non-IPs (cross-hatched bars) and IPs (black bars) that were incubated for 20 hours in FC-loading medium either in the absence or presence of 10 μM of the IKK inhibitor PS1145, 10 μM of the PI-3 kinase/Akt inhibitor […], or both compounds.\n(§1) FC-AMs were removed from the culture dish and cultured for 30 minutes with a monolayer of fresh macrophages (“phagocytes”) at an approximate ratio of 1:5 (FC-AMs:phagocytes). In certain experiments, the FC-AMs were labeled with Alexa Fluor 488 annexin V or Calcium Green™-AM for 20 minutes prior to addition to the phagocytes in order to mark those phagocytes that had ingested the FC-AMs (“ingesting phagocytes,” or “IPs”). The non-ingested apoptotic cells were then removed by thorough rinsing as described in Li et al. (2006, J. Biol. Chem. 281:6707-6717), and the phagocytes were incubated in fresh medium for the indicated times. In some experiments, the phagocytes were incubated during the post-ingestion incubation in medium containing acetyl-LDL and 58035 to maintain FC levels in the (ingesting phagocytes) IPs, inhibitors of Akt or NFκB, or various combinations of these reagents. To assay apoptosis in the phagocytes, the cells were stained with Alexa Fluor 594 annexin V and viewed by fluorescence microscopy. For quantification, 4-6 representative fields of cells at 40× magnification were counted to determine the number of apoptotic phagocytes and total phagocytes for each condition.\nBecause NFκB is known to signal survival responses in cells, the functional significance of NFκB signaling in the survival response of IPs against FC-induced apoptosis was investigated. […] The NFkB and Akt survival pathways might represent independent, complementary survival pathways or they may signal through a common final mediator. […]"}, "[3]": {"tested_on": "ingesting phagocytes (IPs) and non-IPs", "assay": "UV-induced apoptosis (annexin V) in IPs and non-IPs", "assay_type": "cell-based, mouse", "settings": "10 μM inhibitor, 8 hour incubation after UV irradiation, FIG. 12"}, "[4]": {"tested_on": "cholesterol trafficking to ACAT in the ER", "assay": "Whole-cell cholesterol esterification assay in phagocytes after ingestion of FC-AMs", "assay_type": "cell-based, mouse", "settings": "1 μM during the post-ingestion period; FIG. 7", "method": "FIG. 7 is a bar graph depicting the results of experiments in which macrophages were incubated for 18 hours in medium alone (i.e., no exposure to FC-AMs) or in the same medium for the indicated time points after ingestion of FC-AMs. All of the incubations contained [^14C]oleate, and some of the phagocytes were incubated with 1 μM U18666A during the post-ingestion period to block cholesterol trafficking to the endoplasmic reticulum (ER). To make sure that the phagocytes would not be exposed to residual ACAT inhibitor in the FC-AMs, the FC-AMs for this experiment were generated by incubating macrophages from Acat1−/− mice with AcLDL without ACAT inhibitor. After the indicated time points, the macrophages were assayed for cholesteryl [^14C]oleate formation as an indicator of cholesterol trafficking to ACAT in the ER.\nAfter a 30 minute incubation of phagocytes with FC-AMs that were made using acetyl-LDL and macrophages from Acat1^−/− mice (i.e., no ACAT inhibitor), non-ingested apoptotic cells were removed, and the phagocytes were incubated in fresh medium containing [^14C]oleate for specific times. […] Cholesterol esterification activity was then determined in lipid extracts of the cells by measuring the cellular content of cholesteryl [^14C]oleate by thin-layer chromatography (Tabas et al., 1987, J. Clin. Invest. 79:418-426). […]"}, "apoptotic J774 cells": {"tested_on": "apoptotic J774 cells", "assay": "Phagocytic uptake of apoptotic J774 cells by peritoneal macrophages, ROCK inhibitor (Example 4)", "assay_type": "cell-based", "settings": "10 μM, one hour pre-treatment, 45 minutes with apoptotic cells; vs untreated; FIG. 4", "method": "As discussed in Example 6, statins can inhibit RhoA activation. RhoA activation inhibits phagocytic clearance of apoptotic cells and so inhibitors of RhoA or the downstream RhoA effector, Rho kinase (ROCK) can enhance or at least contribute to limit or decrease Rho-mediated inhibition of phagocytic clearance. […] In these experiments, peritoneal macrophages (phagocytes) were treated for one hour in the presence or absence of 10 μM Y-27632. Calcein-AM-labeled (green) apoptotic J774 cells (UV-irradiated) were then added to the phagocytes at a ratio of 1:1, in the absence or presence of Y-27632. After 45 minutes, non-internalized cells were removed by rinsing, and the percentage of phagocytes that had internalized labeled apoptotic macrophages was quantified by fluorescence microscopy. Results are depicted in FIG. 4 as the as the mean ±SEM; n=3 fields of cells, each containing approximately 150 cells."}, "[5]": {"tested_on": "UV-induced apoptotic J774 macrophages", "assay": "Phagocytosis of UV-induced apoptotic J774 macrophages by J744 murine macrophages (Example 4)", "assay_type": "cell-based", "settings": "10 μM, one hour pre-treatment, 45 minutes; vs untreated; FIG. 5", "method": "In a similar experiment, J744 murine macrophages (phagocytes) were pretreated in the presence of absence of the ROCK inhibitor fasudil (10 μM) for one hour. The phagocytes were then incubated for 45 minutes, with or without fasudil, with fluorescently labeled UV-induced apoptotic J774 macrophages (“UV-Ams”). The percentage of phagocytes that had engulfed at least one UV-AM was quantified using fluorescent microscopy. […] Such compounds are useful for treating cardiovascular disease."}, "[6]": {"tested_on": "ingesting phagocytes (IPs)", "assay": "Apoptosis in phagocytes that had ingested FC-AMs, incubated with SRA ligand", "assay_type": "cell-based, mouse", "method": "as §1\nFC-induced apoptosis in macrophages requires UPR activation in combination with engagement of the type A scavenger receptor (SRA), both of which occur with acetyl-LDL-induced FC loading. […]"}, "[7]": {"tested_on": "UV-irradiated apoptotic J774 cells", "assay": "Efferocytosis of UV-irradiated apoptotic J774 cells by cytokine pre-treated primary efferocytes", "assay_type": "cell-based", "settings": "pre-treated about 24 hours, challenged 30 minutes; FIG. 17", "method": "FIG. 17. Primary efferocytes were pre-treated with the indicated cytokine for about 24 hours and then challenged for 30 minutes with UV-irradiated apoptotic J774 cells and the percent efferocytosis was determined.\nThus, drugs that mimic this effect can promote the uptake of apoptotic macrophages in advanced atherosclerotic lesions (see in allergic, cellular and humoral responses to parasitic and extracellular pathogens (see Nat Rev Immunol. 2003 January;3(1):23-35)."}}, "data": [{"molecule": "CCN(CC)CC.Nc1ncnc2c1ncn2C1OC2COP(O)(=S)OC2C1O", "note": "(single isomer, unassigned) [PKA inhibitor, adenosine 3′,5′-cyclic monophosphorothioate, Rp-isomer, triethylammonium salt]", "values": [{"measurement": "percentage of rhodamine-labeled phagocytes with green inclusion (uptake of FC-induced apoptotic macrophages)", "setting": "[1]", "value": "internalized more FC-induced apoptotic macrophages than untreated phagocytes"}]}, {"molecule": "O=c1cc(N2CCOCC2)oc2c(-c3ccccc3)cccc12", "note": "[LY294002]", "values": [{"measurement": "apoptosis in IPs", "setting": "[2]", "value": "32.0±5.7", "unit": "%"}]}, {"molecule": "O=C(Nc1cc(Cl)cc2c1[nH]c1cnccc12)c1cccnc1", "note": "[PS1145]", "values": [{"measurement": "FC-induced apoptosis in IPs (in words)", "setting": "[2]; 20 hours FC-loading, vs no inhibitor", "value": "very similar effect"}, {"measurement": "apoptosis in IPs", "setting": "[2]", "value": "32.0±3.4", "unit": "%"}, {"measurement": "UV-induced apoptosis in non-IPs / compared to non-IPs", "setting": "[3]", "value": "no effect"}, {"measurement": "UV-induced apoptosis in IPs", "setting": "[3]; vs no-inhibitor control", "value": "only a small increase"}]}, {"molecule": "CCN(CC)CCO[C@H]1CC[C@@]2(C)C(=CC[C@@H]3[C@@H]2CC[C@]2(C)C(=O)CC[C@@H]32)C1", "note": "[U18666A]", "values": [{"measurement": "FC-AM-induced increase in cholesterol esterification (cholesteryl [14C]oleate formation)", "setting": "[4]", "value": "completely blocked"}]}, {"molecule": "C[C@@H](N)[C@H]1CC[C@H](C(=O)Nc2ccncc2)CC1", "note": "[Y-27632, trans-4-[(1R)-1-aminoethyl]-N-pyridin-4-ylcyclohexanecarboxamide]", "values": [{"measurement": "percentage of phagocytes ingesting apoptotic macrophages", "setting": "apoptotic J774 cells", "value": "increase"}]}, {"molecule": "O=S(=O)(c1cccc2cnccc12)N1CCCNCC1", "note": "[fasudil]", "values": [{"measurement": "percentage phagocytosis (phagocytes that had engulfed at least one UV-AM)", "setting": "[5]", "value": "increased"}]}, {"molecule": "fucoidan", "values": [{"measurement": "induction of apoptosis in the IPs", "setting": "[6]", "value": "did not induce apoptosis"}]}, {"molecule": "B1", "values": [{"measurement": "percent efferocytosis (ability of phagocytes to engulf apoptotic macrophages)", "setting": "[7]", "value": "promotes the ability of these phagocytes to engulf apoptotic macrophages"}]}]}
